{"source": "paper PMC11995503", "about": "(Molecular Cancer, 2025)", "key": {"KDR/VEGFR2": {"system": "KDR/VEGFR2", "assay": "KDR inhibition", "type": "biochemical"}, "[1]": {"details": "life-threatening side effects; cited from earlier work"}, "BP-CML": {"system": "BP-CML", "details": "BP-CML cohort, cited from earlier work"}}, "data": [{"compound": "Cc1ccc(C(=O)Nc2ccc(CN3CCN(C)CC3)c(C(F)(F)F)c2)cc1C#Cc1cnc2cccnn12", "note": "[Ponatinib]", "values": [{"measurement": "KDR inhibition potency relative to KF1601", "setting": "KDR/VEGFR2", "value": "tenfold greater"}, {"measurement": "arterial obstruction", "setting": "[1]", "value": 33, "unit": "%"}, {"measurement": "heart failure", "setting": "[1]", "value": 9, "unit": "%"}, {"measurement": "thromboembolism", "setting": "[1]", "value": 6, "unit": "%"}, {"measurement": "patients achieving a major cytological response", "setting": "BP-CML; within six months", "value": 23, "unit": "%"}, {"measurement": "median overall survival", "setting": "BP-CML", "value": "seven"}]}]}
